# Where two headings read alike, the source gives them in different places.
# Key:
# [1] = Rat 28-day toxicokinetics; assay type: in vivo; details: plasma, po; for half-life: read-out: apparent terminal half-life (converted); for AUC: read-out: AUC within 24 hours post dosing
# Method: In the rat repeated-dose toxicokinetic study, fexinidazole was administered orally by gavage once a day for 28 consecutive days to ten or fifteen Crl:CD (SD)IGS BR rats/sex/group at doses of 50, 200, or 800 mg/kg/day. A control group received the vehicle alone (5% Tween 80/0.5% methocel). Ten animals/sex/group were sacrificed at the end of the treatment period on day 29 or 30 of study. The remaining 5 animals/sex/group in the control and high-dose groups were sacrificed on day 43 at the end of a 2-weeks observation period. Systemic exposure to fexinidazole and its sulfoxide and sulfone metabolites was evaluated in three additional animals/sex/group. Samples were taken at predose, and 30 min, 1, 2, 4, 8 and 24 h after dosing on days 1, 14, and 28, and in addition at 48 and 72 h after treatment on day 28.
# Toxicokinetic Report for the study No. 0504-2007
# SD Standard deviation of the mean […]
# t1/2,z Terminal half-life tmax Time to peak plasma concentration
# ULOQ Upper limit of quantification
# The study was conducted according to the study protocol and related amendment.
# Fexinidazole was orally given by gavage once a day for 28 days to male and female Sprague Dawley rats according to the following scheme
# Fexinidazole was suspended with 5% Tween 80 in 0.5% Methyl cellulose 400 cP.
# 6.2. Sample Collection and Handling
# Blood samples (about 0.25 mL/sampling time) were withdrawn from retro-orbital sinus plexus under isofluorane anesthesia and put in heparinized plastic tubes kept on a ice-water bath, then centrifuged for 10 min at 1200g at +4°C and two aliquots of about 50 μL of plasma were stored in a freezer at -80°C until analysis. Blood was taken from three rats/gender/dose on Days 1 and 14 at pre-dose and 0.5, 1, 2, 4, 8 and 24 hours after dosing, on Day 28 at pre-dose and 1, 2, 4, 8, 24, 48 and 72 hours after dosing. After the administration of the vehicle, the samples were taken from three rats/gender at pre-dose and […]
# 6.3. Bioanalytical Method
# Rat plasma concentrations of Fexinidazole and its sulfoxide (M1) and sulfone (M2) metabolites were determined by a validated LC/MS/MS method. The calibration range for the assay was 5-1000 ng/mL for Fexinidazole and 25-25000 ng/mL for M1 and M2.
# Study samples containing analytes concentrations above the upper limit of quantitation were diluted with blank matrix prior to analysis.
# 6.4. Pharmacokinetic Calculations
# Pharmacokinetic evaluation was carried out using non-compartmental approach with the aid […]
# Excel spreadsheet (Microsoft Inc., Seattle, USA). […]
# In the calculations, the undetectable concentrations between detectable ones were ignored.
# After each dose level, Cmax and tmax of Fexinidazole and sulfoxide and sulfone metabolites […]
# linear trapezoidal rule up to the last detectable concentration. On Day 28, since the blood […]
# 24 hours post dosing was calculated and denoted AUC0-24. This AUC was calculated in order to compare AUC values on Day 28 to those on Day 1 and Day 14. On Day 28, in addition, the half-life of the terminal phase, t1/2,z, was determined by linear regression analysis of the natural-log concentration vs. time curve, where t1/2,z = ln(2)/slope of the regression line.
# Fexinidazole and metabolites accumulation ratios, based on Cmax (RA,Cmax), AUC0-24 (RA,AUC0-24) and AUC0-t(last) (RA,AUC0-t(last)), were calculated as the ratio between the parameters obtained on Day 14 and Day 28 to the corresponding one at Day 1. […]
# pharmacokinetic parameters of each compound sorted by dose, gender and day of dosing. […]
# compound are reported in Tables 1 and 2, whilst individual and mean parameters of each […]
# Individual and mean (±SD, CV%) plasma
# 2A1 - 19A1 of Appendix 1. Individual plasma concentrations of Fexinidazole and both metabolites are plot in Figures 1 - 9, whilst the mean concentrations are plot in Figures 10 - 15. Mean normalized Cmax and AUC0-t(last) values of Fexinidazole and metabolites vs. dose are plot in Figures 16 - 21.
# In-study bioanalytical validation data are reported in Appendix 2. All analytical batches met […]
# [2] = target: hERG (Homo sapiens, UniProt Q12809); experiment: hERG tail current, patch clamp in HEK 293 cells; details: for Residual Current (% of control): 37°C
# Method: Formulation and stored at 2-4°C when not in use. When in use Tyrode solution was stored at
# CaCl2, 1 MgCl2, 5.5 glucose and 5 HEPES. During the patch-clamp experiments the Tyrode
# 4.2.4. Storage and Formulation of Internal Solution
# The internal solution was stored frozen at – 20°C until the day of use. The composition of
# the internal solution was (in mM): 110 K+- aspartate, 23 KCl, 3 MgCl2, 1 EGTA, 5 HEPES,
# 0.4 GTP (Na+ salt), 5 ATP (Na+ salt), 5 creatine phosphate, 0.4 CaCl2 (pH 7.3 with KOH).
# 4.3.1. Source and Maintenance of hERG Transfected Cells
# HEK 293 cells stably transfected with hERG cDNA, supplied by bSys GmbH Switzerland,
# continuously maintained and passaged in sterile culture flasks containing a mixture of
# Dulbecco’s modified Eagle’s medium and nutrient mixture F-12 supplemented with 10%
# foetal bovine serum, 0.9% Penicillin/Streptomycin solution, Hygromycin B and Blasticidin.
# HEK 293 cells were passaged at a confluence of about 80%. For electrophysiology studies,
# the cells were seeded in Petri dishes (35x10 mm), with culture medium containing
# tetracycline to activate channel expression, at a density that enables isolated cells to be
# selected for patch-clamping. The dishes were stored in a humidified, gassed (5% CO2)
# Petri dishes containing the cells to be used for electrophysiological studies were mounted on
# the stage of an inverted microscope and were superfused with Tyrode solution. Membrane
# currents were recorded (Axopatch 200B, Axon Instruments) in the whole cell configuration
# by using suction pipettes (Harvard apparatus, 1.5 mm o.d. x 0.86 mm i.d.) with tip resistance
# in the range of 2.5-3.5 MΩ. Gigaohm seals were formed between the patch electrodes and
# individual cells. If the quality of the seal was judged to be poor, the electrode was replaced
# and the process repeated with a different cell. Once a stable patch was achieved, recording
# was commenced in voltage-clamp mode, with the cell initially clamped at –80 mV. Series
# resistance and capacitance were compensated to about 70% of their initial value. Cells were
# perfused through a microperfusion system allowing for solution changes to occur within
# approximately one second. Computer software (pClamp version 8.0; Axon Instruments) was
# used to generate voltage clamp protocols, acquire data and analyze current traces. The data
# were stored on a computer hard disk for later analysis. Experiments were performed at a
# temperature in the recording chamber of 37 ± 1°C, which was maintained with a temperature
# Cells stably expressing hERG were held at –80 mV. Onset and steady state block of the
# hERG channel current (IKr) due to the test items were monitored using a pulse pattern with
# fixed amplitudes (first depolarization: -50 mV for 500 ms; second depolarization: +20 mV
# for 2 seconds; hyperpolarization: -50 mV for 7 seconds). This pulse pattern was repeated
# every 15 seconds, and current amplitude at the onset of the second step to –50 mV (“peak
# tail current”) was monitored until a steady state was obtained. Recordings were acquired at
# the sampling interval of 2 kHz and low-pass filtered at 1 kHz. The steady state peak tail
# current was monitored and recorded in vehicle solution and then the test item was applied to
# the bath solution. At the end the reference item E4031 was applied to block 100% of the
# current for determination of the current “leak” response to the stimulation protocol. The
# current amplitude was continually monitored through the onset of the voltage step to –50
# mV until a new steady state level of current was achieved. Each cell was exposed to a single
# test substance concentration.
# 4.5. Statistical Analysis
# For each cell the effect of the test items was ascertained by calculating the residual current as
# percentage of control (% control). All data were corrected for “leak” current by subtracting
# Each value represents the average current
# recorded from 3 sequential voltage pulses. Data from individual cells was collected and the
# [3] = Sprague-Dawley (Crl:CD (SD)IGS BR), 50 mg/kg/day, 50 mg/kg/day po, day 1
# [4] = Sprague-Dawley (Crl:CD (SD)IGS BR), 50 mg/kg/day, 50 mg/kg/day po, day 14
# [5] = Sprague-Dawley (Crl:CD (SD)IGS BR), 200 mg/kg/day, 200 mg/kg/day po, day 1
# [6] = both sexes, Sprague-Dawley (Crl:CD (SD)IGS BR), 200 mg/kg/day, 200 mg/kg/day po, day 14
# [7] = both sexes, Sprague-Dawley (Crl:CD (SD)IGS BR), 800 mg/kg/day, 800 mg/kg/day po, day 1
# [8] = both sexes, Sprague-Dawley (Crl:CD (SD)IGS BR), 800 mg/kg/day, 800 mg/kg/day po, day 14
# hERG, sequence (Q12809 whole entry): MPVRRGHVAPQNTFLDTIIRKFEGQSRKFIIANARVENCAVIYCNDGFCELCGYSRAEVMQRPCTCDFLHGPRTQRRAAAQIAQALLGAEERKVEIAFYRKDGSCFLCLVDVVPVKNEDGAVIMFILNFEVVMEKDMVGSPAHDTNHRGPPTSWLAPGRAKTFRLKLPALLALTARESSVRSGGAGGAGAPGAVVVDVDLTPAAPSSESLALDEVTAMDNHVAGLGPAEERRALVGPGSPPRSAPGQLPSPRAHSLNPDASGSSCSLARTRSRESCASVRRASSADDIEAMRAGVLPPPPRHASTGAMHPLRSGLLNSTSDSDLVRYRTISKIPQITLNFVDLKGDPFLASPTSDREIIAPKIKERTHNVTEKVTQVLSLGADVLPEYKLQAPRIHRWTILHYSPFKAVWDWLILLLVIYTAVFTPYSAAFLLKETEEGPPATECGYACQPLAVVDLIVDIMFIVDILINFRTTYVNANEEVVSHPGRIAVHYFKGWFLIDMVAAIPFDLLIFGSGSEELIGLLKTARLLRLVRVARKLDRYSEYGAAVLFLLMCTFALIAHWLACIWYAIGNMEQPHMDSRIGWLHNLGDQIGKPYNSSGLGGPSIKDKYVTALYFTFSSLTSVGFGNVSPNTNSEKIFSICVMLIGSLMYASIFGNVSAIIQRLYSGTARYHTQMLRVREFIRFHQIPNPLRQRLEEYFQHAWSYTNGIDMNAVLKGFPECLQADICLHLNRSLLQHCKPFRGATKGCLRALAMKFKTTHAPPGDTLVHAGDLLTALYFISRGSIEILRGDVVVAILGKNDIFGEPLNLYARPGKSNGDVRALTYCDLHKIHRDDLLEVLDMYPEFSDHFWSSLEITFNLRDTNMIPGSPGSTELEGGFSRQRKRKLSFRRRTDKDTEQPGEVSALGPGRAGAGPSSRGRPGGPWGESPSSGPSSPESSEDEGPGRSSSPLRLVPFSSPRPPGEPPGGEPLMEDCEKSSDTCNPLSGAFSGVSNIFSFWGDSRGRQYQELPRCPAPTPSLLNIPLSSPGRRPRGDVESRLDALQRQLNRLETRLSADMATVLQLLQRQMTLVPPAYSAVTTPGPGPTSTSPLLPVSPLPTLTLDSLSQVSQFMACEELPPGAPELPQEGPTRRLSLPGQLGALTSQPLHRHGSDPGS
smiles,measurement,setting,value
Cn1c([N+](=O)[O-])cnc1COc1ccc(S(C)(=O)=O)cc1 [Fexinidazole sulfone],half-life,"[1]; Sprague Dawley (Crl:CD (SD)IGS BR), 50 mg/kg/day, Day 28, female",13 h
same,half-life,"[1]; Sprague Dawley (Crl:CD (SD)IGS BR), 50 mg/kg/day, Day 28, male",6.1 ± 1.2 h
same,half-life,"[1]; Sprague Dawley (Crl:CD (SD)IGS BR), 200 mg/kg/day, Day 28, female",7.3 h
same,half-life,"[1]; Sprague Dawley (Crl:CD (SD)IGS BR), 200 mg/kg/day, Day 28, male",7.5 h
same,half-life,"[1]; Sprague Dawley (Crl:CD (SD)IGS BR), 800 mg/kg/day, Day 28, female (n=2)",11 h
same,half-life,"[1]; Sprague Dawley (Crl:CD (SD)IGS BR), 800 mg/kg/day, Day 28, male",10 h
same,Cmax,[1]; [3],2920 ± 2260 ng/mL
same,Tmax,[1]; [3],7.33 ± 1.63 h
same,AUC(0-t),"[1]; Sprague-Dawley (Crl:CD (SD)IGS BR), 50 mg/kg/day, 50 mg/kg/day po, day 1, read-out: AUC0-t(last)",36.1 ± 28.6 µg·h/mL
same,Cmax,[1]; [4],6380 ± 2300 ng/mL
same,Tmax,[1]; [4],6 ± 2.19 h
same,AUC(0-t),"[1]; Sprague-Dawley (Crl:CD (SD)IGS BR), 50 mg/kg/day, 50 mg/kg/day po, day 14, read-out: AUC0-t(last)",89.6 ± 34.1 µg·h/mL
same,AUC,"[1]; Sprague-Dawley (Crl:CD (SD)IGS BR), 50 mg/kg/day, Day 28, female",175 µg·h/mL
same,AUC,"[1]; Sprague-Dawley (Crl:CD (SD)IGS BR), 50 mg/kg/day, Day 28, male",106 µg·h/mL
same,Cmax,[1]; [5],9290 ± 1750 ng/mL
same,Tmax,[1]; [5],8 h
same,AUC,"[1]; Sprague-Dawley (Crl:CD (SD)IGS BR), 200 mg/kg/day, Day 28, female",341 µg·h/mL
same,AUC,"[1]; Sprague-Dawley (Crl:CD (SD)IGS BR), 200 mg/kg/day, Day 28, male",341 µg·h/mL
same,AUC,"[1]; Sprague-Dawley (Crl:CD (SD)IGS BR), 800 mg/kg/day, Day 28, female (n=2)",572 µg·h/mL
same,AUC,"[1]; Sprague-Dawley (Crl:CD (SD)IGS BR), 800 mg/kg/day, Day 28, male",459 µg·h/mL
same,AUC(0-t),"[1]; both sexes, Sprague-Dawley (Crl:CD (SD)IGS BR), 200 mg/kg/day, 200 mg/kg/day po, day 1, read-out: AUC0-t(last)",126 ± 17.5 µg·h/mL
same,Cmax,[1]; [6],20200 ± 2420 ng/mL
same,Tmax,[1]; [6],7.33 ± 1.63 h
same,AUC(0-t),"[1]; both sexes, Sprague-Dawley (Crl:CD (SD)IGS BR), 200 mg/kg/day, 200 mg/kg/day po, day 14, read-out: AUC0-t(last)",287 ± 36.5 µg·h/mL
same,Cmax,[1]; [7],42600 ± 13100 ng/mL
same,Tmax,[1]; [7],10.7 ± 6.53 h
same,AUC(0-t),"[1]; both sexes, Sprague-Dawley (Crl:CD (SD)IGS BR), 800 mg/kg/day, 800 mg/kg/day po, day 1, read-out: AUC0-t(last)",574 ± 256 µg·h/mL
same,Cmax,[1]; [8],40500 ± 13000 ng/mL
same,Tmax,[1]; [8],6.67 ± 2.07 h
same,AUC(0-t),"[1]; both sexes, Sprague-Dawley (Crl:CD (SD)IGS BR), 800 mg/kg/day, 800 mg/kg/day po, day 14, read-out: AUC0-t(last)",543 ± 252 µg·h/mL
same,Cmax,"[1]; female, Sprague Dawley (Crl:CD (SD)IGS BR), 50 mg/kg, Day 1, female",4420 ± 2410 ng/mL
same,AUC(0-t),"[1]; female, Sprague Dawley (Crl:CD (SD)IGS BR), 50 mg/kg, Day 1, female, read-out: AUC0-t(last)",55.8 ± 28.1 µg·h/mL
same,Cmax,"[1]; female, Sprague Dawley (Crl:CD (SD)IGS BR), 50 mg/kg/day, Day 28, female",10700 ng/mL
same,Cmax,"[1]; female, Sprague Dawley (Crl:CD (SD)IGS BR), 200 mg/kg, Day 1, female",10000 ± 815 ng/mL
same,AUC(0-t),"[1]; female, Sprague Dawley (Crl:CD (SD)IGS BR), 200 mg/kg, Day 1, female, read-out: AUC0-t(last)",134 ± 10.8 µg·h/mL
same,Cmax,"[1]; female, Sprague Dawley (Crl:CD (SD)IGS BR), 200 mg/kg/day, Day 28, female",21400 ng/mL
same,Cmax,"[1]; female, Sprague Dawley (Crl:CD (SD)IGS BR), 800 mg/kg, Day 1, female",44800 ± 20100 ng/mL
same,AUC(0-t),"[1]; female, Sprague Dawley (Crl:CD (SD)IGS BR), 800 mg/kg, Day 1, female, read-out: AUC0-t(last)",683 ± 241 µg·h/mL
same,Cmax,"[1]; female, Sprague Dawley (Crl:CD (SD)IGS BR), 800 mg/kg/day, Day 28, female (n=2)",41900 ng/mL
same,AUC(0-t),"[1]; female, Sprague-Dawley (Crl:CD (SD)IGS BR), 50 mg/kg/day, Day 28, female, read-out: AUC0-t(last)",197 µg·h/mL
same,AUC(0-t),"[1]; female, Sprague-Dawley (Crl:CD (SD)IGS BR), 200 mg/kg/day, Day 28, female, read-out: AUC0-t(last)",448 µg·h/mL
same,AUC(0-t),"[1]; female, Sprague-Dawley (Crl:CD (SD)IGS BR), 800 mg/kg/day, Day 28, female (n=2), read-out: AUC0-t(last)",738 µg·h/mL
same,Cmax,"[1]; male, Sprague Dawley (Crl:CD (SD)IGS BR), 50 mg/kg, Day 1, male",1420 ± 393 ng/mL
same,AUC(0-t),"[1]; male, Sprague Dawley (Crl:CD (SD)IGS BR), 50 mg/kg, Day 1, male, read-out: AUC0-t(last)",16.5 ± 9.76 µg·h/mL
same,Cmax,"[1]; male, Sprague Dawley (Crl:CD (SD)IGS BR), 50 mg/kg/day, Day 28, male",7750 ng/mL
same,Cmax,"[1]; male, Sprague Dawley (Crl:CD (SD)IGS BR), 200 mg/kg, Day 1, male",8550 ± 2310 ng/mL
same,AUC(0-t),"[1]; male, Sprague Dawley (Crl:CD (SD)IGS BR), 200 mg/kg, Day 1, male, read-out: AUC0-t(last)",119 ± 21.9 µg·h/mL
same,Cmax,"[1]; male, Sprague Dawley (Crl:CD (SD)IGS BR), 200 mg/kg/day, Day 28, male",24200 ng/mL
same,Cmax,"[1]; male, Sprague Dawley (Crl:CD (SD)IGS BR), 800 mg/kg, Day 1, male",40300 ± 1560 ng/mL
same,AUC(0-t),"[1]; male, Sprague Dawley (Crl:CD (SD)IGS BR), 800 mg/kg, Day 1, male, read-out: AUC0-t(last)",465 ± 264 µg·h/mL
same,Cmax,"[1]; male, Sprague Dawley (Crl:CD (SD)IGS BR), 800 mg/kg/day, Day 28, male",33000 ng/mL
same,AUC(0-t),"[1]; male, Sprague-Dawley (Crl:CD (SD)IGS BR), 50 mg/kg/day, Day 28, male, read-out: AUC0-t(last)",113 µg·h/mL
same,AUC(0-t),"[1]; male, Sprague-Dawley (Crl:CD (SD)IGS BR), 200 mg/kg/day, Day 28, male, read-out: AUC0-t(last)",387 µg·h/mL
same,AUC(0-t),"[1]; male, Sprague-Dawley (Crl:CD (SD)IGS BR), 800 mg/kg/day, Day 28, male, read-out: AUC0-t(last)",509 µg·h/mL
same,Residual Current (% of control),[2]; 1 µM,96.16±8.15%
same,Residual Current (% of control),[2]; 5 µM,90.76±3.84%
same,decrease on hERG peak tail current,"[2]; 30 µM, 9.34 µg/mL",33%
same,Residual Current (% of control),[2]; 30 µM,67.41±2.24%
same,effect on hERG peak tail current,[2]; 1 or 5 µM,no effect

# — publication PMC3006138, “Fexinidazole – A New Oral Nitroimidazole Drug Candidate Entering Clinical Development for the Treatment of Sleeping Sickness” (PLoS Neglected Tropical Diseases, 2010)
